# Reference: PMC8231556, “Inhibiting Endothelial Cell Function in Normal and Tumor Angiogenesis Using BMP Type I Receptor Macrocyclic Kinase Inhibitors” (Cancers, 2021)
# How the values were obtained:
# Assay in all cases: radiometric kinase profiling (33 PanQinase)
# Type in all cases: biochemical
# EPHA5 = molecular target: T1, EPHA5 (Homo sapiens, UniProt P54756); details: read-out: Inhibitory effect (%) EPHA5
# T1 construct: purchased ProQinase (33PanQinase Activity Assay)
# Procedure, shortened: (§1)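 Enzyme/substrate mixes were incubated with [γ-33P]-ATP and compound (added as a 0.1 μM solution in 10% DMSO) at 30 °C for 60 min, then stopped with H3PO4 and washed with NaCl. 33P incorporation was scintillation-counted, and residual activity (%) was normalized to untreated control and background.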
# KDR = molecular target: T2, KDR (Homo sapiens, UniProt P35968); details: read-out: Inhibitory effect (%) KDR
# T2 construct: purchased ProQinase (33PanQinase Activity Assay)
# T2 sequence (P35968 20-1356): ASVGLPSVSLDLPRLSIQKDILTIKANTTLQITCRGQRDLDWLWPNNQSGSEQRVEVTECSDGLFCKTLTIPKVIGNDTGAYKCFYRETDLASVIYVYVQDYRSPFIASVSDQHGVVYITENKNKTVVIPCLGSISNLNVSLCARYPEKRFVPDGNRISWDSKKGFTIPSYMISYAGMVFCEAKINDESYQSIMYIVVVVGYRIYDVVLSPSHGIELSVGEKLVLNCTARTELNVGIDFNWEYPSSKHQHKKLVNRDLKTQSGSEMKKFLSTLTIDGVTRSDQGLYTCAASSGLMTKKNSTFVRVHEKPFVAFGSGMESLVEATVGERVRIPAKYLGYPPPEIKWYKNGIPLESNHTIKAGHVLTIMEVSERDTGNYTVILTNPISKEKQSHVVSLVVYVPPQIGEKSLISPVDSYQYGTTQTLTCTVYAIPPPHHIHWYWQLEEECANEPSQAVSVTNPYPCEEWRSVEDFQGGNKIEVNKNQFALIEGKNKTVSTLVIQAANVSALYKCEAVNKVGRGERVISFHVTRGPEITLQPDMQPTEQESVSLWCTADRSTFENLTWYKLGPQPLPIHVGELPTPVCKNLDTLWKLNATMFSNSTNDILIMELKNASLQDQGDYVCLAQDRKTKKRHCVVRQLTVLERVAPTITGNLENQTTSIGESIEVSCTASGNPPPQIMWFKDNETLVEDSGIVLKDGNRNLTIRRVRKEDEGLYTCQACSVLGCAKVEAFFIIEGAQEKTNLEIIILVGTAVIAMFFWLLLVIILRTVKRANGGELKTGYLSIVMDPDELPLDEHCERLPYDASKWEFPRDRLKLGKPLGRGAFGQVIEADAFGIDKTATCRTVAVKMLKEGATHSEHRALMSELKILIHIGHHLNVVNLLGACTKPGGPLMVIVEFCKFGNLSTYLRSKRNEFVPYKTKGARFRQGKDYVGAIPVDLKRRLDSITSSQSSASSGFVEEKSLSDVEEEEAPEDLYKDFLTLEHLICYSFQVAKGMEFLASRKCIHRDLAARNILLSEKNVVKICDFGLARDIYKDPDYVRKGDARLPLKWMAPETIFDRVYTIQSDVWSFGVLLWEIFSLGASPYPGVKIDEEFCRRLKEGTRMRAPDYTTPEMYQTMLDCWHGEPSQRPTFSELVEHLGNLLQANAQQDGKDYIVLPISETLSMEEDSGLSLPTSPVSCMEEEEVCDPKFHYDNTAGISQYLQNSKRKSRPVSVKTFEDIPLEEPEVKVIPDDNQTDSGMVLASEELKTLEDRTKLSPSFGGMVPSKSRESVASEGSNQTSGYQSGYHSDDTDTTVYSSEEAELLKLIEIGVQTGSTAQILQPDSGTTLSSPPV
# Procedure, shortened: as §1
# PIM2 = molecular target: T3, PIM2 (Homo sapiens, UniProt Q9P1W9); details: read-out: Inhibitory effect (%) PIM2
# T3 construct: purchased ProQinase (33PanQinase Activity Assay)
# T3 sequence (Q9P1W9 whole entry): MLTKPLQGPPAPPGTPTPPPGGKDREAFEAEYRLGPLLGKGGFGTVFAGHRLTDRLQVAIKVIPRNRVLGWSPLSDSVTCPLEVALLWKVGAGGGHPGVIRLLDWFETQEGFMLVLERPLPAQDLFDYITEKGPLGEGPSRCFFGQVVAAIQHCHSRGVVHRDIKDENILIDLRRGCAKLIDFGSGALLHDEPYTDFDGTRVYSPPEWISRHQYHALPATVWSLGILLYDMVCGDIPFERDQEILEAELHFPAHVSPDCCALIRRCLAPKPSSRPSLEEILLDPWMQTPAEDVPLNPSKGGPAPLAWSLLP
# Procedure, shortened: as §1
# PLK1 = molecular target: T4, PLK1 (Homo sapiens, UniProt P53350); details: read-out: Inhibitory effect (%) PLK1
# T4 construct: purchased ProQinase (33PanQinase Activity Assay)
# T4 sequence (P53350 whole entry): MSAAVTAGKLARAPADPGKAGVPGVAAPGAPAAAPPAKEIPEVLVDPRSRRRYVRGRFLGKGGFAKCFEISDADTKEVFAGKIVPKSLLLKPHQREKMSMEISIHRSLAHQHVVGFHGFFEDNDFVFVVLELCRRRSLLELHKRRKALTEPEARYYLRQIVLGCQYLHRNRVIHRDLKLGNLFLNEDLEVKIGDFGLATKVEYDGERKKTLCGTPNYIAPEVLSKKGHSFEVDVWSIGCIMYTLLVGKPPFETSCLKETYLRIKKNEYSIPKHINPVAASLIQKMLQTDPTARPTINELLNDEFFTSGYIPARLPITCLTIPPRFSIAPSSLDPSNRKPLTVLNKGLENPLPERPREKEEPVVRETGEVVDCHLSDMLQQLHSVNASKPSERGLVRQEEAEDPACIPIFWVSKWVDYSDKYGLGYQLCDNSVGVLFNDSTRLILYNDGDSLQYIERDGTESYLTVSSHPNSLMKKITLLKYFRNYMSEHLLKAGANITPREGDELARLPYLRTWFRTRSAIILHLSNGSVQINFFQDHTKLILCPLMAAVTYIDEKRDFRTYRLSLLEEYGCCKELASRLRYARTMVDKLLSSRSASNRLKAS
# Procedure, shortened: as §1
# PLK4 = molecular target: T5, PLK4 (Homo sapiens, UniProt O00444); details: read-out: Inhibitory effect (%) PLK4
# T5 construct: purchased ProQinase (33PanQinase Activity Assay)
# T5 sequence (O00444 1-970): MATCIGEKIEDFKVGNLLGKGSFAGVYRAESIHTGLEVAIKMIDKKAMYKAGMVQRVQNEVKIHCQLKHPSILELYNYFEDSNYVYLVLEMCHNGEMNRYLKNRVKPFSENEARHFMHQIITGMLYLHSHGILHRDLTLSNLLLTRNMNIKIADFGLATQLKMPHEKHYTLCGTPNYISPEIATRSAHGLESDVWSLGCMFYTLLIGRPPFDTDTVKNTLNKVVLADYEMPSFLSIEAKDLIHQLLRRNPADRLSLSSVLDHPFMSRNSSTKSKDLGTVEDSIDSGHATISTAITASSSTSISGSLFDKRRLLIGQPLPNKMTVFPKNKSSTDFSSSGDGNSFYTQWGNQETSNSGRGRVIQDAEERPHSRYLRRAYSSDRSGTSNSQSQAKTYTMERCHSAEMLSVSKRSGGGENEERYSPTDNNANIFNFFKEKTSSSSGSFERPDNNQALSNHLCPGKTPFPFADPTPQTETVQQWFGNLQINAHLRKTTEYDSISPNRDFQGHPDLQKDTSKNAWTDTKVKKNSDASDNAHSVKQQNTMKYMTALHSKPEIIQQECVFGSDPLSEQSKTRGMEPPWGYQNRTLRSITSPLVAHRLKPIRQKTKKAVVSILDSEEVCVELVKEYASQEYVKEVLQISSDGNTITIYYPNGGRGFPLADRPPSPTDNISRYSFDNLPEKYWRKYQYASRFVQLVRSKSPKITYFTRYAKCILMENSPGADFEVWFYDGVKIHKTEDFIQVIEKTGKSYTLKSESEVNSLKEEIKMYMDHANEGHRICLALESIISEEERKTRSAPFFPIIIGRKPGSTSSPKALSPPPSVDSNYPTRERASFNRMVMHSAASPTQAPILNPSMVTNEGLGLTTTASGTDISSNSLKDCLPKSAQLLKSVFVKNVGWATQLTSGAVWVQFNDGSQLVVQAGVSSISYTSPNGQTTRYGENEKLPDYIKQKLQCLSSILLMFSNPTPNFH
# Procedure, shortened: as §1
# SRC = molecular target: T6, SRC (Homo sapiens, UniProt P12931); details: read-out: Inhibitory effect (%) SRC
# T6 construct: purchased ProQinase (33PanQinase Activity Assay)
# T6 sequence (P12931 whole entry): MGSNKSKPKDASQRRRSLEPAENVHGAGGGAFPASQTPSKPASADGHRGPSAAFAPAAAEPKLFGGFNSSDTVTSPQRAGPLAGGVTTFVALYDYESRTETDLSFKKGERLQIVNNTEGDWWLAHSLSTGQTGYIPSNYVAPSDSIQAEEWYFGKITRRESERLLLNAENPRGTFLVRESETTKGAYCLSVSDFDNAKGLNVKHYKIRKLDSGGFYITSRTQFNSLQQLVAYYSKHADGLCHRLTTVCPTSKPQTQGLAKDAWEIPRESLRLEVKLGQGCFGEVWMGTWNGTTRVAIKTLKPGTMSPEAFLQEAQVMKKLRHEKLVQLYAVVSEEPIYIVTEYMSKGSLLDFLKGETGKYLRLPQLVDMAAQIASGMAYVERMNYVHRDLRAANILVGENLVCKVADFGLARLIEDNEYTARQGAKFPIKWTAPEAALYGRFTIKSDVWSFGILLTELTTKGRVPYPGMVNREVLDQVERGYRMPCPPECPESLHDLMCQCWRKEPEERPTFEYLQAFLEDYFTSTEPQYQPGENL
# Procedure, shortened: as §1
# T1 sequence (P54756 25-1037): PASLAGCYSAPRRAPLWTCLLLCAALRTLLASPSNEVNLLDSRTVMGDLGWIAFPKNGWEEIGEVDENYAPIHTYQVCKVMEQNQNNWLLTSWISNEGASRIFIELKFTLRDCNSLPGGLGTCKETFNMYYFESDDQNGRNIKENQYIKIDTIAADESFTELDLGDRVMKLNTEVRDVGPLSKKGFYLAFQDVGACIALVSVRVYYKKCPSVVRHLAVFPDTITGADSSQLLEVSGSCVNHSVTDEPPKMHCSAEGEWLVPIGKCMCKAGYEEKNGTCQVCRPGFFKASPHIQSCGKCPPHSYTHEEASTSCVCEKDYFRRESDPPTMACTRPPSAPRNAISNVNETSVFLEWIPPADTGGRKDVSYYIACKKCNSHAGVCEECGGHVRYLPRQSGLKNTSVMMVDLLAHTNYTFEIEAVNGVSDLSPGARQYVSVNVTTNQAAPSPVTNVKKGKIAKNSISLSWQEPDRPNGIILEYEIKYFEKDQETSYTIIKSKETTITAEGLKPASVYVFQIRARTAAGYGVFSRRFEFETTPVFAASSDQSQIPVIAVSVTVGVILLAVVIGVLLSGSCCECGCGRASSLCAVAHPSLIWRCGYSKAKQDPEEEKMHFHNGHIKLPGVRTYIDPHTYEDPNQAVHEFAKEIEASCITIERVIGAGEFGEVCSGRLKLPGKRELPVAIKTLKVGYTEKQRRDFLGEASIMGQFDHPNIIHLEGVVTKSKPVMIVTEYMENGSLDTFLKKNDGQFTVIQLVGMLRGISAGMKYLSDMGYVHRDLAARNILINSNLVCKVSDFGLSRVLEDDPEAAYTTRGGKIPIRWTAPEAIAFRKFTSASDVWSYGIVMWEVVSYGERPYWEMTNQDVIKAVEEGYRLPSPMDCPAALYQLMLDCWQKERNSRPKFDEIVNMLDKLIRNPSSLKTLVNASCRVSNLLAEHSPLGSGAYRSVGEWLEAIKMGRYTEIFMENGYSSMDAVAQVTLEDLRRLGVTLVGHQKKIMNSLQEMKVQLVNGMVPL
SMILES,inhibition at 0.1 µM (EPHA5) [%],inhibition at 0.1 µM (KDR) [%],inhibition at 0.1 µM (PIM2) [%],inhibition at 0.1 µM (PLK1) [%],inhibition at 0.1 µM (PLK4) [%],inhibition at 0.1 µM (SRC) [%]
"c1ccc2c(-c3cnn4cc(-c5ccc(N6CCNCC6)cc5)cnc34)ccnc2c1 [LDN-193189, reference compound]",-0.32,-6.35,6.22,-21.7,-34.4,2.89
CN1CCC(=O)NCCNc2ccn3ncc(c3n2)-c2cccc(c2)C1 [OD29],14.8,37.6,1.97,-21.2,4.1,-4.82
CN1CCc2cccc(c2)Nc2nccc(n2)N2CCCc3cc(ccc32)C1 [OD16],-65.7,0.8,-5.63,-5.35,41.4,-19.4
